{
  "source": "patent US20100234315A1",
  "about": "“COMPOSITIONS AND METHODS FOR TREATING PSYCHIATRIC AND […]” (priority 2009, published 2010)",
  "key": {"[1]": {"tested_on": "spontaneously hypertensive rats (SHR)", "assay": "Open-field locomotor activity (beam breaks, rearing) in SHR rats", "format": "in vivo, rat", "experimental": "(§1) The effects of Protoveratrine B (PVB) on locomotor activity were determined using an open-field apparatus (High Density Cage Rack System; Kent Scientific Corporation). Adult spontaneously hypertensive rats (SHR) and adult Wistar Kyoto rats (WKY) were purchased from Charles River Laboratories. […] Sessions lasted 30-minutes and were separated by at least one day to diminish the likelihood of habituation to the apparatus. Three doses of PVB were investigated based upon the blood-pressure phase of the study: 0.01, 0.02 & 0.04 mg/kg.\n(§2) The number of beam breaks was averaged across subjects and into 30-s bins. The upper panel represents the WKY control rats (N=8); the bottom panel represents the SHR rats (N=8). The different plots represent the baseline and different doses of PVB. Several details can be gleaned from the data. […] Second, activity levels in the SHRs appear to drop off precipitously throughout the session and eventually converge with the activity levels seen in the WKYs.\n(§3) To better comprehend the effects of dose on locomotor activity, a dose-response graph was constructed for each rat strain. To construct these graphs, the number of beam breaks that occurred in the first thirty bins (first 15 min) of all rats within a strain was averaged and plotted as a function of dose. The resulting graphs, shown in FIG. 2, represent the effects of PVB on activity within the first 15 minutes post injection.\n(§4) Another measure of activity level is rearing (measured by beam breaks of an infrared plane approximately 5″ above the floor of the chamber). Rearing data were analyzed in the same way as the horizontal beam breaks. The results are illustrated in FIG. 3. […] Unlike the horizontal activity, rearing activity in SHRs was decreased by the 0.01 mg/kg dose."}, "[2]": {"tested_on": "Wistar Kyoto rats (WKY)", "assay": "Open-field locomotor activity (beam breaks, rearing) in WKY rats", "format": "in vivo, rat", "experimental": "as §1, §2, §3, §4"}},
  "data": [
    {"smiles": "CC[C@@H](C)C(=O)O[C@H]1[C@H](O)[C@H]2[C@@H](CN3C[C@@H](C)CC[C@H]3[C@@]2(C)O)[C@@H]2C[C@]34O[C@]5(O)[C@@H](OC(=O)[C@](C)(O)[C@@H](C)O)CC[C@@]3(C)[C@@H]5[C@@H](OC(C)=O)[C@@H](OC(C)=O)[C@H]4[C@@]21O", "note": "(stereo in doubt) [PVB, Protoveratrine B]", "values": [
      {"measurement": "activity level (beam breaks) vs baseline", "setting": "[1]; 0.01 mg/kg i.p., FIG. 1", "result": "did not affect activity"},
      {"measurement": "rearing activity at lowest dose", "setting": "[1]; 0.01 mg/kg i.p., FIG. 3", "result": "decreased"},
      {"measurement": "activity level, largest dose compared with lowest dose", "setting": "[1]; 0.04 mg/kg vs 0.01 mg/kg i.p., FIG. 1", "result": "greater decrease in activity"},
      {"measurement": "mean rearing, first 30 bins", "setting": "[1]; 0.01-0.04 mg/kg i.p., FIG. 3", "result": "reduced rearing"},
      {"measurement": "mean number of beam breaks, first thirty bins (first 15 min)", "setting": "[1]; dose-response 0.01-0.04 mg/kg i.p., FIG. 2", "result": "reduced the mean number of beam breaks"},
      {"measurement": "average activity level (number of beam breaks) as a function of time", "setting": "[1]; i.p., 0.01-0.04 mg/kg, first half of 30-min session, FIG. 1", "result": "decreased activity levels"},
      {"measurement": "mean number of beam breaks, first 15 min, lowest dose", "setting": "[1]; lowest dose (0.01 mg/kg) i.p., FIG. 2", "result": "no activity-decreasing effect"},
      {"measurement": "relative potency between strains", "setting": "[2]; WKY vs SHR, from dose-response functions, FIG. 2", "result": "slightly more potent in WKY than in SHR rats"},
      {"measurement": "mean number of beam breaks, first 15 min, largest dose, WKY compared with SHR", "setting": "[2]; WKY vs SHR, largest dose (0.04 mg/kg) i.p., FIG. 2", "result": "greater reduction in activity levels"},
      {"measurement": "activity level (beam breaks) vs baseline", "setting": "[2]; WKY, 0.01 mg/kg i.p., FIG. 1", "result": "reduced activity from baseline"},
      {"measurement": "activity level, largest dose compared with lowest dose", "setting": "[2]; WKY, 0.04 mg/kg vs 0.01 mg/kg i.p., FIG. 1", "result": "greater decrease in activity"},
      {"measurement": "mean rearing, first 30 bins", "setting": "[2]; WKY, 0.01-0.04 mg/kg i.p., FIG. 3", "result": "reduced rearing"},
      {"measurement": "mean number of beam breaks, first thirty bins (first 15 min)", "setting": "[2]; WKY, dose-response 0.01-0.04 mg/kg i.p., FIG. 2", "result": "reduced the mean number of beam breaks"},
      {"measurement": "average activity level (number of beam breaks) as a function of time", "setting": "[2]; WKY, i.p., 0.01-0.04 mg/kg, first half of 30-min session, FIG. 1", "result": "decreased activity levels"},
      {"measurement": "mean number of beam breaks, first 15 min, lowest dose", "setting": "[2]; WKY, lowest dose (0.01 mg/kg) i.p., FIG. 2", "result": "affected by the lowest dose"}
    ]}
  ]
}
